Data published in ChEMBL document CHEMBL1649488, “In vitro activities of echinocandins against Candida krusei determined by three methods: MIC and minimal fungicidal concentration measurements and time-kill studies” (2009).
≈ marks a conversion by molar mass, not a printed value. Starred links: 1 amine or outer side, 2 acyl side, 3 side chain; linkers in the order of their positions; H or OH if unused. Positions of bridges follow the written chain, without caps; N, C: chain ends. Non-standard residues stand in square brackets, D forms with d. Residues, ends and D or L forms follow the SMILES beside them. *: point of attachment. pTerphenylCO(4''-OnC5H11) = CCCCCOc1ccc(-c2ccc(-c3ccc(C(=O)*)cc3)cc2)cc1; Orn(4R-OH,5R-OH) = O=C([C@H](C[C@@H](O)[C@@H](O)N[*:3])N[*:1])[*:2]; hTyr(3S-OH,4S-OH) = N[C@H](C(=O)O)[C@H](O)[C@@H](O)c1ccc(O)cc1; Pro(3S-OH,4S-Me) = C[C@H]1CN[C@H](C(=O)O)[C@H]1O; Hyp = O=C(O)[C@@H]1C[C@@H](O)CN1

Columns and labels:
Format in all cases: functional
Pichia kudriavzevii [1] = test: Antifungal activity against Candida krusei EU123 bloodstream forms after 24 hrs by time-kill analysis; conditions: EU123, 24 h
Pichia kudriavzevii [2] = test: Antifungal activity against Candida krusei ATCC 6258 bloodstream forms assessed as time to achieve 99% fungal growth reduction at 2 mg/L by time-kill analysis
Pichia kudriavzevii [3] = test: Antifungal activity against Candida krusei ATCC 6258 bloodstream forms assessed as time to achieve 99.9% fungal growth reduction at 0.5 mg/L by time-kill analysis
Pichia kudriavzevii [4] = test: Antifungal activity against Candida krusei ATCC 6258 bloodstream forms assessed as minimum concentration producing >= 100% growth reduction after 48 hrs by M27-A3 microdilution method; conditions: ATCC 6258, 48 h
Pichia kudriavzevii [5] = test: Antifungal activity against Candida krusei CK2 bloodstream forms after 24 hrs by time-kill analysis; conditions: CK2, 24 h
Pichia kudriavzevii [6] = test: Antifungal activity against Candida krusei ATCC 6258 bloodstream forms assessed as time to achieve 90% fungal growth reduction at 0.5 mg/L by time-kill analysis
Pichia kudriavzevii [7] = test: Antifungal activity against Candida krusei ATCC 6258 bloodstream forms assessed as time to achieve 50% fungal growth reduction at 2 mg/L by time-kill analysis
Pichia kudriavzevii [8] = test: Antifungal activity against Candida krusei CK1 bloodstream forms after 24 hrs by time-kill analysis; conditions: CK1, 24 h
Pichia kudriavzevii [9] = test: Antifungal activity against Candida krusei ATCC 6258 bloodstream forms assessed as minimum concentration producing >= 50% growth reduction after 48 hrs by M27-A3 microdilution method; conditions: ATCC 6258, 48 h
Pichia kudriavzevii [10] = test: Antifungal activity against Candida krusei CY118 bloodstream forms after 24 hrs by time-kill analysis; conditions: CY118, 24 h
Pichia kudriavzevii [11] = test: Antifungal activity against Candida krusei ATCC 6258 bloodstream forms assessed as time to achieve 99% fungal growth reduction at 8 mg/L by time-kill analysis
Pichia kudriavzevii [12] = test: Antifungal activity against Candida krusei ATCC 6258 bloodstream forms assessed as time to achieve 90% fungal growth reduction at 2 mg/L by time-kill analysis
Pichia kudriavzevii [13] = test: Antifungal activity against Candida krusei ATCC 6258 bloodstream forms after 24 hrs by time-kill analysis; conditions: ATCC 6258, 24 h
Pichia kudriavzevii [14] = test: Antifungal activity against Candida krusei ATCC 6258 bloodstream forms assessed as time to achieve 99.9% fungal growth reduction at 2 mg/L by time-kill analysis
Pichia kudriavzevii [15] = test: Fungicidal activity against Candida krusei CY118 bloodstream forms after 24 hrs by time-kill analysis; conditions: CY118, 24 h
Pichia kudriavzevii [16] = test: Antifungal activity against Candida krusei ATCC 6258 bloodstream forms assessed as time to achieve 99.9% fungal growth reduction at 0.12 mg/L by time-kill analysis
Pichia kudriavzevii [17] = test: Fungicidal activity against Candida krusei CK1 bloodstream forms after 24 hrs by time-kill analysis; conditions: CK1, 24 h
Pichia kudriavzevii [18] = test: Antifungal activity against Candida krusei CK18 bloodstream forms after 24 hrs by time-kill analysis; conditions: CK18, 24 h
Pichia kudriavzevii [19] = test: Fungicidal activity against Candida krusei CK6 bloodstream forms after 24 hrs by time-kill analysis; conditions: CK6, 24 h
Pichia kudriavzevii [20] = test: Fungicidal activity against Candida krusei EU123 bloodstream forms after 24 hrs by time-kill analysis; conditions: EU123, 24 h
Pichia kudriavzevii [21] = test: Antifungal activity against Candida krusei ATCC 6258 bloodstream forms assessed as time to achieve 99% fungal growth reduction at 0.12 mg/L by time-kill analysis
Pichia kudriavzevii [22] = test: Fungicidal activity against Candida krusei ATCC 6258 bloodstream forms after 24 hrs by time-kill analysis; conditions: ATCC 6258, 24 h
Pichia kudriavzevii [23] = test: Antifungal activity against Candida krusei ATCC 6258 bloodstream forms assessed as time to achieve 99.9% fungal growth reduction at 8 mg/L by time-kill analysis
Pichia kudriavzevii [24] = test: Fungicidal activity against Candida krusei EU220 bloodstream forms after 24 hrs by time-kill analysis; conditions: EU220, 24 h
Pichia kudriavzevii [25] = test: Antifungal activity against Candida krusei ATCC 6258 bloodstream forms assessed as time to achieve 99% fungal growth reduction at 0.5 mg/L by time-kill analysis
Pichia kudriavzevii [26] = test: Antifungal activity against Candida krusei ATCC 6258 bloodstream forms assessed as time to achieve 50% fungal growth reduction at 8 mg/L by time-kill analysis
Pichia kudriavzevii [27] = test: Fungicidal activity against Candida krusei CK2 bloodstream forms after 24 hrs by time-kill analysis; conditions: CK2, 24 h
Pichia kudriavzevii [28] = test: Fungicidal activity against Candida krusei CK18 bloodstream forms after 24 hrs by time-kill analysis; conditions: CK18, 24 h
Pichia kudriavzevii [29] = test: Antifungal activity against Candida krusei EU220 bloodstream forms after 24 hrs by time-kill analysis; conditions: EU220, 24 h
Pichia kudriavzevii [30] = test: Antifungal activity against Candida krusei CK6 bloodstream forms after 24 hrs by time-kill analysis; conditions: CK6, 24 h
Pichia kudriavzevii [31] = test: Antifungal activity against Candida krusei ATCC 6258 bloodstream forms assessed as minimum concentration producing >= 50% growth reduction after 24 hrs by M27-A3 microdilution method; conditions: ATCC 6258, 24 h
Pichia kudriavzevii [32] = test: Antifungal activity against Candida krusei ATCC 6258 bloodstream forms assessed as time to achieve 90% fungal growth reduction at 0.12 mg/L by time-kill analysis
Pichia kudriavzevii [33] = test: Antifungal activity against Candida krusei ATCC 6258 bloodstream forms assessed as time to achieve 50% fungal growth reduction at 0.12 mg/L by time-kill analysis
Pichia kudriavzevii [34] = test: Antifungal activity against Candida krusei ATCC 6258 bloodstream forms assessed as minimum concentration producing >= 100% growth reduction after 24 hrs by M27-A3 microdilution method; conditions: ATCC 6258, 24 h
Pichia kudriavzevii [35] = test: Fungicidal activity against Candida krusei ATCC 6258 bloodstream forms after 48 hrs by M27-A3 microdilution method
Pichia kudriavzevii [36] = test: Antifungal activity against Candida krusei ATCC 6258 bloodstream forms assessed as time to achieve 50% fungal growth reduction at 0.5 mg/L by time-kill analysis
Pichia kudriavzevii [37] = test: Antifungal activity against Candida krusei ATCC 6258 bloodstream forms assessed as time to achieve 90% fungal growth reduction at 8 mg/L by time-kill analysis

CCCCCOc1ccc(-c2ccc(-c3ccc(C(=O)N[C@H]4C[C@@H](O)[C@@H](O)NC(=O)[C@@H]5[C@@H](O)[C@@H](C)CN5C(=O)[C@H]([C@@H](C)O)NC(=O)[C@H]([C@H](O)[C@@H](O)c5ccc(O)cc5)NC(=O)[C@@H]5C[C@@H](O)CN5C(=O)[C@H]([C@@H](C)O)NC4=O)cc3)cc2)cc1 [ANIDULAFUNGIN] ({pTerphenylCO(4''-OnC5H11)}-[Orn(4R-OH,5R-OH)]T[Hyp][hTyr(3S-OH,4S-OH)]T[Pro(3S-OH,4S-Me)]; lactam 1-C)
MIC (Pichia kudriavzevii [1]): 0.12 µg/mL (≈ 0.105 µM) | Time (Pichia kudriavzevii [2]): 12.7 h | Time (Pichia kudriavzevii [3]): >48 h | MIC50 (Pichia kudriavzevii [4]): 0.25 µg/mL (≈ 0.219 µM) | MIC90 (Pichia kudriavzevii [4]): 0.5 µg/mL (≈ 0.438 µM) | MIC (Pichia kudriavzevii [5]): 0.06 µg/mL (≈ 0.0526 µM) | Time (Pichia kudriavzevii [6]): 22.4 h | Time (Pichia kudriavzevii [7]): 1.9 h | MIC (Pichia kudriavzevii [8]): 0.12 µg/mL (≈ 0.105 µM) | MIC50 (Pichia kudriavzevii [9]): 0.12 µg/mL (≈ 0.105 µM) | MIC90 (Pichia kudriavzevii [9]): 0.25 µg/mL (≈ 0.219 µM) | MIC (Pichia kudriavzevii [10]): 0.5 µg/mL (≈ 0.438 µM) | Time (Pichia kudriavzevii [11]): 13.8 h | Time (Pichia kudriavzevii [12]): 6.4 h | MIC (Pichia kudriavzevii [13]): 0.03 µg/mL (≈ 0.0263 µM) | Time (Pichia kudriavzevii [14]): 19.1 h | MFC (Pichia kudriavzevii [15]): 8 µg/mL (≈ 7.02 µM) | Time (Pichia kudriavzevii [16]): >48 h | MFC (Pichia kudriavzevii [17]): 0.5 µg/mL (≈ 0.438 µM) | MIC (Pichia kudriavzevii [18]): 0.12 µg/mL (≈ 0.105 µM) | MFC (Pichia kudriavzevii [19]): 0.25 µg/mL (≈ 0.219 µM) | MFC (Pichia kudriavzevii [20]): 0.5 µg/mL (≈ 0.438 µM) | Time (Pichia kudriavzevii [21]): >48 h | MFC (Pichia kudriavzevii [22]): 0.25 µg/mL (≈ 0.219 µM) | Time (Pichia kudriavzevii [23]): 20.68 h | MFC (Pichia kudriavzevii [24]): 0.12 µg/mL (≈ 0.105 µM) | Time (Pichia kudriavzevii [25]): >48 h | Time (Pichia kudriavzevii [26]): 2.1 h | MFC (Pichia kudriavzevii [27]): 0.5 µg/mL (≈ 0.438 µM) | MFC (Pichia kudriavzevii [28]): 0.5 µg/mL (≈ 0.438 µM) | MIC (Pichia kudriavzevii [29]): 0.12 µg/mL (≈ 0.105 µM) | MIC (Pichia kudriavzevii [30]): 0.12 µg/mL (≈ 0.105 µM) | MIC50 (Pichia kudriavzevii [31]): 0.12 µg/mL (≈ 0.105 µM) | MIC90 (Pichia kudriavzevii [31]): 0.12 µg/mL (≈ 0.105 µM) | Time (Pichia kudriavzevii [32]): 25.5 h | Time (Pichia kudriavzevii [33]): 7.7 h | MIC50 (Pichia kudriavzevii [34]): 0.12 µg/mL (≈ 0.105 µM) | MIC90 (Pichia kudriavzevii [34]): 0.25 µg/mL (≈ 0.219 µM) | MFC50 (Pichia kudriavzevii [35]): 0.25 µg/mL (≈ 0.219 µM) | MFC90 (Pichia kudriavzevii [35]): 0.5 µg/mL (≈ 0.438 µM) | MFC (Pichia kudriavzevii [35]; Pichia kudriavzevii, ATCC 6258, 48 h): 0.12 µg/mL (≈ 0.105 µM) | Time (Pichia kudriavzevii [36]): 6.7 h | Time (Pichia kudriavzevii [37]): 6.9 h
